We go through three molecules from ChEMBL document CHEMBL3352029, “Ring fusion strategy for the synthesis of anthra[2,3-d]oxazole-2-thione-5,10-dione homologues as DNA topoisomerase inhibitors and as antitumor agents” (Eur J Med Chem, 2014).

Active and inactive are the calls of the source. No cut-off for these calls is given here. A value given as a limit tells only on which side of the number the result lay.

A short description of assay [1]: Cytotoxicity against human PC3 cells assessed as cell growth level at 10 uM after 48 hrs by sulforhodamine B assay. The assay is classed as functional, PC-3. Background: The SRB assay estimates cell density from bound dye.
The nature of assay [2]: Cytotoxicity against human OVCAR5 cells assessed as cell growth level at 10 uM after 48 hrs by sulforhodamine B assay. Type of assay: functional, OVCAR-5.
Assay [3] deals with KM12. In words: Cytotoxicity against human KM12 cells assessed as cell growth level at 10 uM after 48 hrs by sulforhodamine B assay. Type of assay: functional.
Assay [4] can be described thus: Cytotoxicity against human OVCAR3 cells assessed as cell growth level at 10 uM after 48 hrs by sulforhodamine B assay. The assay is classed as functional, OVCAR-3.
The nature of assay [5]: Cytotoxicity against human UO31 cells assessed as cell growth level at 10 uM after 48 hrs by sulforhodamine B assay. Type of assay: functional, UO-31.
Assay [6] deals with 786-0. In words: Cytotoxicity against human 786-0 cells assessed as cell growth level at 10 uM after 48 hrs by sulforhodamine B assay. Type of assay: functional.
Assay [7] deals with SW-620. In words: Cytotoxicity against human SW620 cells assessed as cell growth level at 10 uM after 48 hrs by sulforhodamine B assay. Type of assay: functional.
Assay [8] can be described thus: Cytotoxicity against human PC3 cells assessed as inhibition of cell growth after 48 hrs by sulforhodamine B assay. The assay is classed as functional, cell-based. The settings on record: PC-3, 48 h.
Assay [9] relates to MDA-MB-435. In words: Cytotoxicity against human MDA-MB-435 cells assessed as cell growth level at 10 uM after 48 hrs by sulforhodamine B assay. Type of assay: functional.
Assay [10] can be described thus: Cytotoxicity against human UACC62 cells assessed as cell growth level at 10 uM after 48 hrs by sulforhodamine B assay. Type of assay: functional, UACC-62.
Assay [11] can be described thus: Cytotoxicity against human OVCAR8 cells assessed as cell growth level at 10 uM after 48 hrs by sulforhodamine B assay. The assay is classed as functional, OVCAR-8.
Assay [12] deals with A498. In words: Cytotoxicity against human A498 cells assessed as cell growth level at 10 uM after 48 hrs by sulforhodamine B assay. Type of assay: functional.
The nature of assay [13]: Cytotoxicity against human HCT116 cells assessed as cell growth level at 10 uM after 48 hrs by sulforhodamine B assay. Type of assay: functional, HCT-116.
Assay [14] has as its system SR. In words: Cytotoxicity against human SR cells assessed as cell growth level at 10 uM after 48 hrs by sulforhodamine B assay. Type of assay: functional.
Assay [15] addresses T1, DNA topoisomerase 1 (Homo sapiens) (UniProt P11387).
T1 sequence (whole entry): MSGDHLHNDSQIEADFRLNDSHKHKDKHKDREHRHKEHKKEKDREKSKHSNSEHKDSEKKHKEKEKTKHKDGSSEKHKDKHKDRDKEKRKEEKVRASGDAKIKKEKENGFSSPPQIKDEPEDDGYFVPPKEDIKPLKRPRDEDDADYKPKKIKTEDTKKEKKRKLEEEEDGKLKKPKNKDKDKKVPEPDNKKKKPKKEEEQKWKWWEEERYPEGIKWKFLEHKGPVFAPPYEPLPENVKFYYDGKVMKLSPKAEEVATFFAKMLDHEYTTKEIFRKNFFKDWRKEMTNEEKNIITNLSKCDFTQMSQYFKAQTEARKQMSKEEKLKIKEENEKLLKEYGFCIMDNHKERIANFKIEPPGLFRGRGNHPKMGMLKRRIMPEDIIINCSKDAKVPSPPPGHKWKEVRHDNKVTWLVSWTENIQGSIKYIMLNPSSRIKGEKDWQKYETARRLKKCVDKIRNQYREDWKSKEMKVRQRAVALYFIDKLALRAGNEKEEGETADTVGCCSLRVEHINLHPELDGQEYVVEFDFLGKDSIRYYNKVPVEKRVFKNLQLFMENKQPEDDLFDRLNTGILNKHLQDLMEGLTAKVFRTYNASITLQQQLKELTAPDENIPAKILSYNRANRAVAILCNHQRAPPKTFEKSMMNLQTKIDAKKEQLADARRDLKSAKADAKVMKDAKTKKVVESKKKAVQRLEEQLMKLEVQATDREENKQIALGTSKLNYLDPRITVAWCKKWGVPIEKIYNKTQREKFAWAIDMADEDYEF
In words: Inhibition of human recombinant DNA topoisomerase 1 assessed as reduction in relaxation of supercoiled pHOT DNA at 6.25 to 25 uM incubated for 45 mins by ethidium bromide staining based gel electrophoresis.

Assay [16] concerns the target T1, DNA topoisomerase 1 (Homo sapiens). In words: Inhibition of human recombinant DNA topoisomerase 1 assessed as reduction in relaxation of supercoiled pHOT DNA at 25 to 50 uM incubated for 45 mins by ethidium bromide staining based gel electrophoresis.

By IC50 is commonly meant the concentration at which inhibition is half-maximal. Consider `O=C1c2ccccc2C(=O)c2cc3oc(SCc4ccc(F)cc4)nc3cc21`, for which the Activity in assay [1] is 88.52%; in [2], 94.94%; in assay [3] it was 104.72%; in [4], 115.02%; in assay [5], 77.49%; in [6], 98.08%. The Activity stood at 100.32% in assay [7]; 91.05% in [9]; 89.94% in assay [10]; 94.89% in assay [11]; 94.5% in [12]; 88.61% in assay [13]. The Activity in assay [14] worked out at 85.14%. Further, the IC50 in assay [8] was above 30 µM.

Regarding `CCSc1nc2cc3c(cc2o1)C(=O)c1ccccc1C3=O`, the Activity in assay [1] is recorded as 84.23%; in assay [2] it was 104.57%; in assay [3], 101.43%; in assay [4], 101%; in [5], 57.94%; in [6] it was 99.33%. Also, the Activity in assay [7] turned out to be 91.86%; in [9] it was 101.49%; in [10], 89.01%; in [11] it was 92.46%; in assay [12] it was 80.69%; in [13], 95.99%. For the same molecule, in [14], the Activity was determined as 92.53%. The IC50 in [8] was above 30 µM.

Regarding `CN(C)CCCSc1nc2cc3c(cc2o1)C(=O)c1ccccc1C3=O`, the Activity in assay [1] was 85.96%; in assay [2] it was 86.43%; in [3], 82.13%; in assay [4] it was 100.68%; in assay [5] it was 59.82%; in assay [6], 86.09%. The Activity in assay [7] is given as 69.11%; in assay [9] it was 85.47%; in assay [10] it was 86%; in assay [11] it was 72.26%; in assay [12], 72.09%; in assay [13], 59.24%. The Activity in [14] is on record as 28.03%. For the same molecule, in assay [8], the IC50 was 16 µM. Besides, the inhibition result in assay [15] is “Dose-dependent effect”. The inhibition entry in assay [16] is “Active”.
